In patent US6096788A, “Antimalaria and antibabesiosis agents and pharmaceutical compositions containing such agents” (priority 1996, dated 2000):

Legend:
[1] = test system: Plasmodium vinckei, petterei or chabaudi; assay: Therapeutic index in infected mice (antimalaria activity compared with semi-chronic toxicity); format: in vivo; settings: i.p. or s.c., twice a day for four days, ratio of activity over toxicity (LD50)
Description: In order to evaluate the therapeutic index of the different products, the activity of these products was tested in vivo and compared with […] toxicity in animals. This activity was measured using the test described by PETERS W. (Chemotherapy and Drug resistance in Malaria, 1970). A compound was administered for four consecutive days to mice previously infected with Plasmodium vinckei, petterei or chabaudi. The said compound was dissolved in a 0.9% NaCl solution. The preparations were thus administered intraperitoneally or subcutaneously in male Swiss mice infected by intravenous injection of Plasmodium petterei or Plasmodium chadaudi (10^6 infected cells). The compound was administered twice a day for four consecutive days, the first injection being performed two hours after the infestation and the second, 10 hours later. The parasitemia was determined on blood smears the day after the end of treatment. Toxicity was measured in vivo following the same schedule, the animals having received, under the same administration conditions as above, two injections per day for four days (semi-chronic toxicity). The results are expressed in lethal dose 50 (LD50), i.e. the dose causing death in 50% of the animals.
The results of these trials are summarized in Table I, below, and expressed as therapeutic index, or the ratio of activity over toxicity measured under the identical conditions described above.

[2] = test system: Babesia bovis, Babesia canis; assay: In vitro antibabesia activity, (3H) hypoxanthine incorporation; format: cell-based; settings: score from ED50 of (3H) hypoxanthine incorporation
Description: The screening process for antimalaria activity, based on parasite incorporation of (^3 H) hypoxanthine was used to test the antimetabolic activity of such components against Babesia bovis, Babesia canis. A tight relationship was found between the rate of (^3 H) hypoxanthine incorporation using standard measurements and the percentage of parasitized cells determined by microscopy. […] The score was ++ for the same activity at a concentration of 0.01 to 0.1 micromoles and finally + for a concentration under or equal to 1 micromole.

[3] = test system: P. falciparum (FVO isolate); assay: Antimalaria activity of G25 in Aotus lemurinus monkey infected by P. falciparum FVO isolate; format: in vivo
Description: Besides chimpanzees, only two South American monkey species, Aotus and Saimiri seirius, can be infected by P. falciparum. Currently, infection of Aotus monkeys with the human parasite is the best, and quasi-unique, model for evaluating therapeutic or vaccinal interventions against malaria (Collins W. E., Gallaud C. G., Sullivan J. S., and Morris C. L., "Selections of different strains of Plasmodium falciparum for testing blood stages in Aotus nancymal monkeys" An. J. Trop. Med. Hyg., 1994, 51 (2) 224-232).
The antimalaria activity was thus evaluated in the Aotus lemurinus monkey infected by the FVO (falciparum Vietnam Oaknoll) isolate of P. falciparum. This isolate is chloroquine-resistant and inevitably lethal for Aotus monkeys at the "Fundacion Centro de Primates" at the University del Valle, Cali, Colombia.
Treatment with G25 (dissolved in 0.9% NaCl) was initiated when the parasitemia reached 5.6%; 16 doses (0.2 mg/kg b.i.d. for 8 days) were given. […] The parasitemia in a monkey treated by combination sulfadoxine/pyrimethamine (FANSIDAR) is given for comparison.
In all, 15 monkeys were infected, then treated with G25 given by intramuscular injections at doses ranging from 0.010 to 0.2 mg/kg.

[4] = Maximal tolerable dose and therapeutic index in the monkey; settings: in vivo

SMILES | Therapeutic index [1] | Antibabesia activity at 10 millimoles [2] | Decline in parasitemia ([3]; FVO isolate, 0.2 mg/kg b.i.d. for 8 days, treatment started at 5.6% parasitemia) | minimal effective dose ([3]; Plasmodium falciparum, in Primates, im, 4380 h, intramuscular, 6 months follow-up, read-out: Lowest dose with complete cure (validated by PCR), no recurrences) [mg/kg] | Activity at 0.01 mg/kg ([3]; intramuscular, 0.01 mg/kg) | MTD [4] [mg/kg] | selectivity ratio ([4]; read-out: therapeutic index (LD50/ED50) in the monkey)
CCC[N+](CCC)(CCC)CCCCCCCCCCCCCCCC[N+](CCC)(CCC)CCC.[Br-].[Br-] [EXAMPLE 9, N,N,N,N',N',N'-hexapropyl-1,16-hexadecanediaminium dibromide] | 36 | +++ (a 50% inhibition of (^3 H) hypoxanthine incorporation (ED50), these molecules having a concentration less than or equal to 0.01 micromoles) |  |  |  |  | 
CCC[N+](CCC)(CCC)CCCCCCCCCCCCCCCC[N+](CCC)(CCC)CCC.[Br-].[Br-] [EXAMPLE 12, N,N,N,N',N',N'-hexapropyl-1,16-hexadecanediaminium dibromide] | 11 | ++ (the same activity at a concentration of 0.01 to 0.1 micromoles) |  |  |  |  | 
C[N+]1(CCCCCCCCCCCCCC[N+]2(C)CCCC2CO)CCCC1CO (stereo not shown) [EXAMPLE 18, 1,1'-(1,14-tetradecanediyl)bis(2-hydroxymethl-1-methylpyrrolidium) dibromide] | 22 | +++ (a 50% inhibition of (^3 H) hypoxanthine incorporation (ED50), these molecules having a concentration less than or equal to 0.01 micromoles) |  |  |  |  | 
C[N+]1(CCCCCCCCCCCCCCCC[N+]2(C)CCCC(CO)C2)CCCC(CO)C1 (stereo not shown) [EXAMPLE 20] | 17 | +++ (a 50% inhibition of (^3 H) hypoxanthine incorporation (ED50), these molecules having a concentration less than or equal to 0.01 micromoles) |  |  |  |  | 
C[N+]1(CCCCCCCCCCCCCCCC[N+]2(C)CCCC2)CCCC1 [Example G25] |  |  | decline in parasitemia was evident at the second dose | 0.03 | active (parasite clearance) but did not lead to complete cure (recurrence observed) | ~1.5 | > 50
